Experimental data published in PMC8041284, “Tunable Methacrylamides for Covalent Ligand Directed Release Chemistry” (Journal of the American Chemical Society, 2021).
Where a SMILES comes first, the peptide text is derived from it.

Each compound was assayed against BTK (Homo sapiens, UniProt Q06187) (assay: biochemical). Conditions: read-out: BTK inhibition (%).
Sequence of BTK (Q06187 402-655 limits assumed): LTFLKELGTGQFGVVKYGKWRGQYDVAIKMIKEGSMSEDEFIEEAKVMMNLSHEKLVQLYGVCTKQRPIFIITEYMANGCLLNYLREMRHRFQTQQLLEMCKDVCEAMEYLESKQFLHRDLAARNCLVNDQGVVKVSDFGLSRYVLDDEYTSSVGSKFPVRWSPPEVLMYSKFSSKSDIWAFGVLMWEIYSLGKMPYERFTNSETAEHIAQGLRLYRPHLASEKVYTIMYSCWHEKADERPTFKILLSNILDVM
Work on `C/C=C(\C)C(=O)N[C@@H](c1ccccc1)[C@@H](O)C(=O)O[C@H]1C[C@@]2(O)[C@@H](OC(=O)c3ccccc3)[C@@H]3[C@]4(OC(C)=O)CO[C@@H]4C[C@H](O)[C@@]3(C)C(=O)[C@H](OC(C)=O)C(=C1C)C2(C)C` [PCM-0214711] yielded an inhibition at 10 µM of -8.6%.
Work on `C[C@@H]1C(=O)O[C@H]2[C@H](O)[C@]34[C@@H]5OC(=O)[C@]3(O[C@@H]3OC(=O)[C@H](O)[C@@]34[C@H](C(C)(C)C)[C@H]5O)[C@@]12O` [PCM-0215011] yielded an inhibition at 10 µM of 5.4%.

Same assay, conditions: read-out: BTK inhibition (%), 0.75 uM BTK, […] probe 3l, 15 min preincubation
`O=C(NCCCn1ccnc1)c1cc(-c2ccco2)on1` [PCM-0215720] was tested, and the inhibition at 10 µM was -9.3%.
In the case of `N#Cc1c(NC(=O)c2cccc3ccccc23)sc2c1CCCC2` [PCM-0095805], the inhibition at 10 µM is reported as 16.6%.
Work on `O=c1oc2cc(O)ccc2s1` [PCM-0090709] yielded an inhibition at 10 µM of -13.2%.
With `CNS(=O)(=O)CC1CCC(N(C)c2ncnc3[nH]ccc23)CC1` (stereo not shown) [PCM-0215617] the inhibition at 10 µM was 9.7%.
For `O=P(O)(O)C(Cl)(Cl)P(=O)(O)O` [PCM-0065307], the inhibition at 10 µM was -23.8%.
In the case of `CCOc1cc(N)c(Cl)cc1C(=O)NCC1CN(Cc2ccc(F)cc2)CCO1` (stereo not shown) [PCM-0095041], the inhibition at 10 µM is reported as -14%.
`CCN1CCN(C(=O)Cc2ccc(Nc3ncc(F)c(Nc4ccc(C(=O)Nc5ccccc5Cl)cc4)n3)cc2)CC1` [PCM-0095121] showed an inhibition at 10 µM of 40.7%.
Work on `O=c1c(O)c(-c2ccc(O)cc2)oc2cc(O)cc(O)c12` [PCM-0087037] yielded an inhibition at 10 µM of 67.7%.
With `Cc1ccc(S(=O)(=O)n2c(N)nc3ccccc32)cc1` [PCM-0095508] the inhibition at 10 µM was -3.1%.
In the case of `CCCOc1ccc2c(c1)CC[C@@H]1[C@@H]2CC[C@]2(C)[C@@H](OC)CC[C@@H]12` [PCM-0214906], the inhibition at 10 µM is reported as -24.1%.
With `C/C(=C\C(=O)Nc1ccccc1C(=O)O)c1ccc2ccccc2c1` [PCM-0095068] the inhibition at 10 µM was -11%.
With `COc1cc2c(cc1OC)CN(C(=O)/C=C/c1c(-c3ccccc3)n(C)c3ncccc13)CC2` [PCM-0215686] the inhibition at 10 µM was 37.8%.
`O=C(NNc1ccccc1)c1ccncc1` [PCM-0095808] was tested, and the inhibition at 10 µM was -11.6%.
In the case of `COc1ccc(/C=C/C(=O)c2c(O)cc(OC)cc2OC)cc1` [PCM-0216582], the inhibition at 10 µM is reported as 11.6%.
`CCN=C1N[C@@H]2[C@@H](O)[C@H](O)[C@@H](CO)O[C@@H]2S1` [PCM-0215232] was tested, and the inhibition at 10 µM was 3.1%.
For `CN(C)CCN(Cc1ccccc1)c1ccccn1` [PCM-0086274], the inhibition at 10 µM was 12.8%.
In the case of `CC[C@H](Nc1ncnc2nc[nH]c12)c1oc2ccccc2c(=O)c1-c1cccc(F)c1` [PCM-0216040], the inhibition at 10 µM is reported as 8.5%.
Compound `O=c1cc(-c2ccc(O)cc2)oc2cc(O)c(O)c(O)c12` [PCM-0216408] has an inhibition at 10 µM of 70.3%.
`O=C(CBr)c1ccc(O)cc1` [PCM-0214871] was tested, and the inhibition at 10 µM was -28.8%.
For `CC(=O)Nc1nc(-c2cccc(NS(=O)(=O)c3cccc4c(N(C)C)cccc34)c2)cs1` [PCM-0215679], the inhibition at 10 µM was 97.3%.
Compound `C[C@@H](N)c1ccc(C(=O)Nc2ccnc3[nH]ccc23)cc1` [PCM-0215750] has an inhibition at 10 µM of -30.3%.
`Clc1ncnc2nc[nH]c12` [PCM-0215064] gave an inhibition at 10 µM of 9.3%.
`CCCCCCCCCCCCCCCCOc1nc2ccc(C)cc2c(=O)o1` [PCM-0215987] gave an inhibition at 10 µM of -28.9%.
For `O=S(=O)(O)c1cc(O)ccc1O` [PCM-0086281], the inhibition at 10 µM was 3.9%.
`COCC1(CO)C(=O)C2CCN1CC2` (stereo not shown) [PCM-0215751] was tested, and the inhibition at 10 µM was 0%.
`O=c1c2ccccc2nc(/C=C/c2cccnc2)n1Cc1ccccc1` [PCM-0102024] showed an inhibition at 10 µM of 0%.
With `C=C[C@H]1CN2CC[C@H]1C[C@H]2[C@H](O)c1ccnc2ccc(OC)cc12` [PCM-0004959] the inhibition at 10 µM was -22.6%.
In the case of `O=c1oc2c(O)c(O)cc3c(=O)oc4c(O)c(O)cc1c4c23` [PCM-0090664], the inhibition at 10 µM is reported as 15.3%.
Work on `Nc1nc(=S)c2ncn([C@H]3C[C@H](O)[C@@H](CO)O3)c2[nH]1` [PCM-0215558] yielded an inhibition at 10 µM of -7.7%.
`CC1CCc2c(N3CCC(O)CC3)c(F)cc3c(=O)c(C(=O)O)cn1c23` (stereo not shown) [PCM-0086338] gave an inhibition at 10 µM of 1.6%.
In the case of `O=C(O)CCc1ccc(O)cc1` [PCM-0215016], the inhibition at 10 µM is reported as -17.9%.
Compound `Cc1cc(OCc2nnc(SC3CCCC3)n2-c2cccnc2)ccc1-c1ccc(S(C)(=O)=O)cc1` [PCM-0095789] has an inhibition at 10 µM of 0.8%.
Compound `C[C@H]1[C@H](NC(=O)/C(=N\OC(C)(C)C(=O)O)c2csc(N)n2)C(=O)N1S(=O)(=O)O` [PCM-0085816] has an inhibition at 10 µM of -15.6%.
With `COC(=O)c1ccc(O)c(O)c1` [PCM-0215036] the inhibition at 10 µM was -15.6%.
`C=C1CCN([C@H](C)[C@](O)(Cn2cncn2)c2ccc(F)cc2F)CC1` [PCM-0215992] was tested, and the inhibition at 10 µM was -13.1%.
`CC(C)(Sc1cc(C(C)(C)C)c(O)c(C(C)(C)C)c1)Sc1cc(C(C)(C)C)c(O)c(C(C)(C)C)c1` [PCM-0086112] was tested, and the inhibition at 10 µM was 0.8%.
Work on `OC1OC[C@@H](O)[C@@H](O)[C@H]1O` (stereo partly shown) [PCM-0216193] yielded an inhibition at 10 µM of 4.6%.
Compound `N#CC[C@H](C1CCCC1)n1cc(-c2ncnc3[nH]ccc23)cn1` [PCM-0095031] has an inhibition at 10 µM of 28.3%.
`CC(C)c1c2cc(-c3ccnc(NC4CCC(NC5CCOCC5)CC4)n3)ccc2nn1C` (stereo not shown) [PCM-0215782] gave an inhibition at 10 µM of 3.4%.
`c1ccc(-c2[nH]ncc2-c2ccnc3ccccc23)nc1` [PCM-0095402] showed an inhibition at 10 µM of 14.5%.
In the case of `CC(C)n1nc(-c2ccc3oc(N)nc3c2)c2c(N)ncnc21` [PCM-0095423], the inhibition at 10 µM is reported as -6.2%.
In the case of `O=c1cc(N2CCOCC2)oc2c1ccc1ccccc12` [PCM-0215173], the inhibition at 10 µM is reported as -17.9%.
`Cc1ncc([N+](=O)[O-])n1CC(O)CCl` (stereo not shown) [PCM-0085772] was tested, and the inhibition at 10 µM was -3.9%.
`CC(=O)OCC(=O)[C@@]12OC(C)(C)O[C@@H]1C[C@H]1[C@@H]3C[C@H](F)C4=CC(=O)C=C[C@]4(C)[C@@]3(F)[C@@H](O)C[C@@]12C` [PCM-0214700] was tested, and the inhibition at 10 µM was 19.3%.
For `O=C1CCC[C@@H]2[C@H]3CCCN4CCC[C@H](CN12)[C@@H]34` [PCM-0215044], the inhibition at 10 µM was -16.3%.
In the case of `NC(=O)c1ncn([C@@H]2O[C@H](CO)[C@@H](O)[C@H]2O)c1O` [PCM-0065422], the inhibition at 10 µM is reported as 0.9%.
`N#Cc1cc(-c2n[nH]c(-c3ccncc3)n2)ccn1` [PCM-0214916] was tested, and the inhibition at 10 µM was -18.7%.
With `COC(=O)[C@H](Cc1ccccc1)NC(=O)[C@@H](N)CC(=O)O` [PCM-0214708] (H-Asp-Phe-OMe) the inhibition at 10 µM was 6.2%.
For `CS(=O)(=O)Nc1ccc([N+](=O)[O-])cc1Oc1ccccc1` [PCM-0064916], the inhibition at 10 µM was 3.4%.
Compound `CN1CCN(c2nc(C3=C(c4c[nH]c5ccccc45)C(=O)NC3=O)c3ccccc3n2)CC1` [PCM-0095375] has an inhibition at 10 µM of 57.9%.
`COc1ccc2cc([C@H](C)C(=O)O)ccc2c1` [PCM-0000233] was tested, and the inhibition at 10 µM was -13.1%.
`CCOc1ccc(Cc2cc([C@@H]3O[C@H](CO)[C@@H](O)[C@H](O)[C@H]3O)ccc2Cl)cc1` [PCM-0095107] showed an inhibition at 10 µM of -2.1%.
Compound `COc1ccccc1N1CCN(CCN2C(=O)CC3(CCCC3)CC2=O)CC1` [PCM-0064586] has an inhibition at 10 µM of -3.1%.
With `CCCCCCCCCCCCCCCCCCOP(=O)([O-])OC1CC[N+](C)(C)CC1` [PCM-0215183] the inhibition at 10 µM was -46.8%.
In the case of `COc1cc2c(Oc3ccc4[nH]c(C)cc4c3F)ccnc2cc1OCC1(N)CC1` [PCM-0216115], the inhibition at 10 µM is reported as 39.4%.
`Cc1ccccc1CN1C2=NCCN2C(=O)C2=C1CCN(Cc1ccccc1)C2` [PCM-0095783] was tested, and the inhibition at 10 µM was -19.3%.
`C[C@@H]1COC(Nc2ccc3ncnc(Nc4ccc(OCc5nccs5)c(Cl)c4)c3c2)=N1` [PCM-0095513] was tested, and the inhibition at 10 µM was 17.2%.
`Nc1ccc(/C=C/C(=O)NCc2cc3cc(-c4ccc(C(=O)N5CCC(F)(F)CC5)cc4)cc(-c4ccc(F)cc4)c3o2)cn1` [PCM-0216035] was tested, and the inhibition at 10 µM was 31.7%.
Work on `CC(C)OC(=O)[C@H](C)N[P@](=O)(OC[C@H]1O[C@@H](n2ccc(=O)[nH]c2=O)[C@](C)(F)[C@@H]1O)Oc1ccccc1` [PCM-0214785] yielded an inhibition at 10 µM of 13.2%.
Work on `CONC(=O)c1ccccc1Nc1cc(Nc2cc(C)nn2C(C)C)ncc1Cl` [PCM-0215811] yielded an inhibition at 10 µM of -10.3%.
In the case of `CC(=O)O[C@H]1C(=O)[C@@]2(C)[C@H]([C@H](OC(=O)c3ccccc3)[C@]3(O)C[C@H](O)C(C)=C1C3(C)C)[C@]1(OC(C)=O)CO[C@@H]1C[C@@H]2O` [PCM-0215022], the inhibition at 10 µM is reported as -17.1%.
With `Cn1ncc(Cl)c1-c1cc(C(=O)N[C@H](CN)Cc2ccc(F)c(F)c2)oc1Cl` [PCM-0215609] the inhibition at 10 µM was -7.6%.
Compound `COc1cc(O)c(CC=C(C)C)c2c1C(=O)CC(c1ccc(O)cc1)O2` (stereo not shown) [PCM-0216367] has an inhibition at 10 µM of 8.5%.
`CSCCC(N)C(=O)O` (stereo not shown) [PCM-0216617] gave an inhibition at 10 µM of 17.9%.
Compound `CC1(C)CCC(C)(C)c2cc(NC(=O)c3ccc(C(=O)O)cc3)ccc21` [PCM-0214790] has an inhibition at 10 µM of -18.7%.
Work on `CC1=C[C@H](O)CC(C)(C)[C@H]1/C=C/C(C)=C/C=C/C(C)=C/C=C/C=C(C)/C=C/C=C(C)/C=C/C1=C(C)C[C@@H](O)CC1(C)C` [PCM-0215916] yielded an inhibition at 10 µM of 0.8%.
Compound `CCN1CCCC1CNC(=O)c1cc(S(=O)(=O)CC)c(N)cc1OC` (stereo not shown) [PCM-0064775] has an inhibition at 10 µM of 0.8%.
`C[C@H]1[C@H](C)CC[C@]2(C(=O)O)CC[C@]3(C)C(=CC[C@@H]4[C@@]5(C)CC[C@H](O)C(C)(C)[C@@H]5CC[C@]43C)[C@H]12` [PCM-0214657] gave an inhibition at 10 µM of 10.9%.
`CCCOc1ccc2nc(NC(=O)OC)[nH]c2c1` [PCM-0086075] showed an inhibition at 10 µM of 10.2%.
In the case of `Cc1c(C(=O)N2CCOc3ccc(-c4ccc(N)nc4)cc3C2)ccc(S(C)(=O)=O)c1F` [PCM-0215244], the inhibition at 10 µM is reported as 1.4%.
Compound `CCCCCCOC(=O)NC(=N)c1ccc(NCc2nc3cc(C(=O)N(CCC(=O)OCC)c4ccccn4)ccc3n2C)cc1` [PCM-0214664] has an inhibition at 10 µM of -14%.
In the case of `O=C(O)CCCCC(CCSCc1ccccc1)SCc1ccccc1` (stereo not shown) [PCM-0095341], the inhibition at 10 µM is reported as -39.7%.
Work on `COc1ccccc1S(=O)(=O)Nc1ccc2c(c1)CN(C)C(=O)N2` [PCM-0094933] yielded an inhibition at 10 µM of 6.2%.
With `CO[C@@H]1[C@@H](OC(N)=O)[C@@H](O)[C@H](Oc2ccc3c(O)c(NC(=O)c4ccc(O)c(CC=C(C)C)c4)c(=O)oc3c2C)OC1(C)C` [PCM-0086469] the inhibition at 10 µM was 7%.
`CCCNS(=O)(=O)Nc1ncnc(OCCOc2ncc(Br)cn2)c1-c1ccc(Br)cc1` [PCM-0095633] showed an inhibition at 10 µM of 10%.
With `O=C(O)/C=C/c1cccc(O)c1` [PCM-0216210] the inhibition at 10 µM was -3.1%.
With `CC(C)=CCC/C(C)=C/CC/C(C)=C/CC/C(C)=C/CC1=C(C)C(=O)c2ccccc2C1=O` [PCM-0216051] the inhibition at 10 µM was 2.3%.
